According to US12083159B2, “Antibacterial compositions, methods of making and use thereof” (MOREHOUSE SCHOOL OF MEDICINE, priority 2011, dated 2024):
Where no end group is shown, it is not given here.

Columns and labels:
Jurkat = format: cell-based; conditions: Jurkat cultures, 12 days
Procedure: Jurkat cultures seeded at low density were grown in the presence of the SMRwt or the SMRmut peptide. A small but consistent aliquot was taken from each culture daily over a period of 12 days. The cells in the aliquot were counted and the cells/ml in the culture calculated to determine culture growth. The data are shown with time on the x-axis and cell number on the y-axis.
Neither peptide cause cell death (data not shown). Using immunoprecipitation with the SMRwt peptide as bait to screen for cellular factors interacting with the SMR domain, a cellular protein Mortalin was co-immunoprecipitated with the SMRwt peptide (FIG. 3). Mortalin, also known as Glucose-regulated protein 75 (GRP75) and Peptide-binding protein 74, is a 679 amino acid long, uninducible member of the heat shock protein 70 family. It has a high degree of identity with other members of the Hsp70 family, including Escherichia coli DnaK.

Escherichia coli 042 = assay: Biofilm formation, crystal violet assay (microtiter plate); format: cell-based; conditions: FIG. 13
Procedure: (§1) Biofilm Formation and Measurement Procedures by Crystal Violet Assay: (1) incubate bacteria in agar plate; (2) single colony was transferred to fresh medium and incubated for overnight; (3) cultures were diluted 1:50 into fresh medium and (4) was dispensed into 96 well plate and incubated for overnight; (5) detection of bacteria growth ability, the OD at 600 nm was determined by the SpectraMax M5 Microplate Reader (6) washed by 1× PBS; (7) stained with crystal violet; (8) detection of biofilm, the OD at 570 nm was determined by the SpectraMax M5 Microplate Reader.
(§2) SMR(mut)-CPP (tat) peptide was used as a negative control.
(§3) Bacterial strains evaluated for biofilm formation included (1) the Gram-negative Vibrio cholerae C7258 strain (A. J. Silva et al., J. Bact., 190 (22):7335-7345 (November 2008); J. C. Ayala et al., Genomics data 5, pp. 147-150, (2015)); (2) the Gram-negative Escherichia coli 042 strain (Taxonomy ID: 216592, R. R. Chaudhuri et al, PLOS One, 5(1):e8801 (Jan. 20, 2010), and (3) the Gram-positive Staphylococcus aureus SCO1 strain (ATCC 12228, S. Sarkar et al., PLos One, 10(2):e0117613 (2015). The Vibrio cholerae, Escherichia coli and Staphylococcus aureus strains and plasmids are listed in the references cited in Table 2.
(§4) The Vibrio cholerae, Escherichia coli and Staphylococcus aureus strains were treated with SMRwt-CPP and SMRmut-CPP peptides and screened for inhibition of their biofilm-forming capacity using microtiter plate (MtP) methods (FIGS. 12-14 (crystal violet assays)) and confocal microscopy (FIGS. 15-16 (intensity count on confocal images).

[1] = system: Staphylococcus aureus SCO1; assay: as above; format: cell-based; conditions: FIG. 14
Procedure: as §1, §2, §3, §4

Vibrio cholerae C7258 = assay: as above; format: cell-based; conditions: FIG. 12
Procedure: as §1, §2, §3, §4

[2] = system: Staphylococcus aureus SCO1; assay: Biofilm formation, SYTO9 confocal microscopy, ImageJ; format: cell-based; conditions: 24 h static, 18, 36, 72 nM, FIG. 15
Procedure: (§5) Strain SCO1 was grown in LB medium at 37° C. to stationary phase. The cultures were diluted 100 fords in fresh medium and biofilm allowed to develop under static conditions for 24 h in Mat Tek glass bottom culture plates. Biofilm formation was stained with SYTO9 and observed by Leico confocal microscopy and three-dimensional (3D) views of S. aureus and measured using the ImageJ. (A) Confocal images, (B) 3D images, and (C) bar graphs showing the inhibit effect of biofilm formation. Error bars represent the mean±SD of two independent experiments. Asterisks (*) indicate significant differences (p≤0.05) relative to negative control *p<0.01 (18 nM), **p<0.001 (36 nM, 72 nM) in SMR-CPP peptide treatment. Each value represents the mean of three independent experiments. Error bars denote the standard deviation (STDEV).
as §4

V. cholerae C7258 = assay: as above; format: cell-based, Vibrio cholerae; conditions: 24 h static, 18, 36, 72 nM, FIG. 16
Procedure: as §5, with “V. cholerae C7258” for “SCO1”, “30°” for “37°”, “V. cholerae” for “S. aureus”, “vs 18” for “(18 nM), **p<0.001 (36”, “nM, 36 nM and” for “nM,”, “nM SMRwt-CPP” for “nM) in SMR-CPP”
as §4

| Sequence | effect on eukaryotic cell growth (Jurkat) | inhibition of biofilm formation (Escherichia coli 042) | inhibition of biofilm formation [1] | inhibition of biofilm formation (Vibrio cholerae C7258) | inhibition of biofilm formation [2] | inhibition of biofilm formation (V. cholerae C7258) |
| --- | --- | --- | --- | --- | --- | --- |
| VGFPVAAVGFPVDYKDDDDK [SMRwt] | no effect on eukaryotic cell growth | – | – | – | – | – |
| AGFPVAAAGFPVGRKKRRQRRRPPQ [SMRmut-CPP, reference compound] | – | no significant effect | no significant effect | no significant effect | – | – |
| VGFPVAAVGFPVGRKKRRQRRRPPQ [SMRwt-CPP] | – | dose-response inhibition of biofilm formation | dose-response inhibition of biofilm formation | dose-response inhibition of biofilm formation | dose-response inhibition of biofilm formation | dose-response inhibition of biofilm formation |
| AGFPVAAAGFPVDYKDDDDK [SMRmut, reference compound] | no effect on eukaryotic cell growth | – | – | – | – | – |
